In patent US8748575B2, “Therapeutic peptides” (Combimab, Inc., priority 2010, dated 2014):

Tests used:
[1] = molecular target: T1, GC-C (Mus musculus, UniProt Q3UWA6); assay: Intestinal membrane 125I-STa competitive radioligand binding assay; parameters: key to I-125 binding assay: 1+ (lowest activity/potency); ++: Results are graded from 1+ (lowest activity/potency) to 5+ (highest activity/potency); +++: Results are graded from 1+ (lowest activity/potency) to 5+ (highest activity/potency); ++++: Results are graded from 1+ (lowest activity/potency) to 5+ (highest activity/potency); +++++: 5+ (highest activity/potency); conditions: for I-125 binding assay: graded activity/potency, mouse intestinal membranes
T1 construct: freshly prepared mouse intestine membranes; from tissue; host or cells: mouse intestine (membrane preparation)
T1 sequence (Q3UWA6 20-1072): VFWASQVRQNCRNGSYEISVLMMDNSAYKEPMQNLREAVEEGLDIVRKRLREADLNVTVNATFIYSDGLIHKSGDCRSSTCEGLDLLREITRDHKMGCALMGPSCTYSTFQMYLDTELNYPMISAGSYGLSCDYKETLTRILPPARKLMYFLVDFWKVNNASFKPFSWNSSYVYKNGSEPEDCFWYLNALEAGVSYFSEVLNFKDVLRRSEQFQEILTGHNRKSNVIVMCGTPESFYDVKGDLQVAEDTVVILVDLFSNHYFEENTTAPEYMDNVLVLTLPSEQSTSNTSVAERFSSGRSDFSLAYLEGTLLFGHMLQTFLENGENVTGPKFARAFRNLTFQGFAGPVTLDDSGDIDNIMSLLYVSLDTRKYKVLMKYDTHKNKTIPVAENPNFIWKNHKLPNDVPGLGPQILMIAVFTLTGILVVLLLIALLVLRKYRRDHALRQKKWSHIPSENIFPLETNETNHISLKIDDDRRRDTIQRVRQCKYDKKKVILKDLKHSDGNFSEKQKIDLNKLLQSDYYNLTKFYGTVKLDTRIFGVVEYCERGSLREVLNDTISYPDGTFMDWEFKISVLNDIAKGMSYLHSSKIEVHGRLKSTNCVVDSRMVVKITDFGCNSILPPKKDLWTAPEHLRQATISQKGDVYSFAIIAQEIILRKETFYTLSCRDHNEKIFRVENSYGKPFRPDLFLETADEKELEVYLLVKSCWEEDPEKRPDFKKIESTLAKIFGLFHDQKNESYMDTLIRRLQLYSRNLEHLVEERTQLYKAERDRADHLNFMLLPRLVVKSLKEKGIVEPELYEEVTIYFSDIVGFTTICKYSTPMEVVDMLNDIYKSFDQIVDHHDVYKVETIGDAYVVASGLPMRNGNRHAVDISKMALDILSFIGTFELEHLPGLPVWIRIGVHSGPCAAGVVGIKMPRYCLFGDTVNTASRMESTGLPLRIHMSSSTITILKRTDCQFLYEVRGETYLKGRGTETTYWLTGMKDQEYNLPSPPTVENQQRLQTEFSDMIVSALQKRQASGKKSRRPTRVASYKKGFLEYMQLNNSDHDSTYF
Description: Intestinal membrane 1-125 labeled radioligand binding assay. The intestinal membrane radioligand binding assay was used to assess whether a novel compound could displace ^125I-STa from GC-C (Crane et al., 1992). Each analog was analyzed for its ability to displace ^125I-STa from GC-C in a competitive binding assay. ^125I-ST Displaced” was determined by co-incubating STa analogs (10 μM) with 50,000 DPM of ^125I-STa (1-18) in the presence of mouse intestinal membranes. The displacement (n=3) for each analog was determined relative to a vehicle control.
Membranes were prepared from freshly harvested mouse intestines by first washing away the blood or feces with ice-cold Dulbecco's PBS. Washed organs were minced with a single-edged razor blade, followed by homogenization on ice in 50 mM Tris, pH 7.6, containing 1 mM EDTA, 1 mM PMSF, 1 mM DTT. Debris was then removed by a 15 minute centrifugation at 3,000×G and 4° C. The supernatant is then passed through successively smaller needles (18 gauge through 25 gauge) and frozen at −70° C. until used as a tissue homogenate. If intended for use as isolated membranes, the above homogenate was centrifuged (100,000×G) at 4° C. for 1 hour while fresh and the pellet was re-suspended in homogenization buffer.
The assay was performed in 96 well filter plates which were pre-incubated overnight with 200 μl of 0.3% polyethylenimine (w/v) and washed three times by aspiration with 300 μl of Wash Buffer (150 mM NaCl, 20 mM Sodium Phosphate pH=7.2, 1 mM EDTA) immediately before use. Into each well of was added 50 μl of 3× Binding buffer (150 mM Tris-HCl pH=7.6, 1.98 mM Cysteamine, 0.3% Bacitracin, 1350 mM NaCl, 3 mM EDTA), 40 μl of double-distilled water, 10 μl of either double-distilled water or cold ligand (50 uM STa (5-18) in double-distilled water), 10 μl of increasing concentrations (125 DPM/ul to 50,000 DPM/ul) of radiolabeled 125I -STa (1-18) and finally 40 μl (approximately 2 mg protein/ml) of freshly prepared mouse intestine membranes. The plates were then incubated with mixing at 37 C for two hr, washed successively with six 200 μl aliquots of Wash Buffer and aspirated to dryness. The filter bottoms of each well were punched into individual borosilicate tubes and bound radioactivity determined in a gamma counter. Protein content was determined on an aliquot of the mouse intestine membranes used in the Biorad Protein Assay.

[2] = test system: T84 cells (GC-C); assay: Intact T84 cell cGMP accumulation assay; format: cell-based, Human; parameters: key to CGMP accumulation assay: 1+ (lowest activity/potency); ++: Results are graded from 1+ (lowest activity/potency) to 5+ (highest activity/potency); +++: Results are graded from 1+ (lowest activity/potency) to 5+ (highest activity/potency); ++++: Results are graded from 1+ (lowest activity/potency) to 5+ (highest activity/potency); +++++: 5+ (highest activity/potency); conditions: for CGMP accumulation assay: graded activity/potency, T84 cells; for activity in the cGMP accumulation assay: FIG. 22, compared to STa peptide
Description: The intact T84 cell assay was used to detect the accumulation of cGMP, the product of agonism, upon interaction with a compound (Visweswariah et al., 1992). Human colorectal adenocarcinoma T84 cells were grown to confluence in a 24 well plate using DMEM/F12 medium supplemented with 10% FBS. The media was aspirated from each well and the cells were washed three times with Dulbecco's PBS (1×, no Ca2+ or Mg2+). The cells were then incubated for 30 minutes at 37° C. with 1 mM […] (IBMX) in Optimem medium (no FBS), either with or without potential antagonists. After incubation under these conditions, a 10× concentrated stock of a known GC-C agonist (e.g., STa (5-18)) in PBS was added to each well and the incubation continued for an additional 15 min at 37° C.
The reaction was stopped by the addition of 200 μL of Passive Lysis Buffer (Promega) to each well. The supernatant was removed for cGMP quantitation by RIA using ^125I-labeled cGMP 54 antibody relative to an external cGMP standard curve. The cells were scraped from the surface for protein content determination using a BioRad Protein Assay.

[3] = Mouse intestinal secretion assay (suckling mouse assay); format: in vivo; parameters: key to Mouse intestinal secretion assay (suckling mouse): 1+ (lowest activity/potency); ++: Results are graded from 1+ (lowest activity/potency) to 5+ (highest activity/potency); +++: Results are graded from 1+ (lowest activity/potency) to 5+ (highest activity/potency); ++++: Results are graded from 1+ (lowest activity/potency) to 5+ (highest activity/potency); +++++: 5+ (highest activity/potency); conditions: for Mouse intestinal secretion assay (suckling mouse): graded activity/potency
Description: A relevant disease model is the suckling mouse model in which STa (5-18) is deposited into the stomach of 3-4 day old mice, and the accumulation of fluid in their intestines is determined gravimetrically (Parkinson et al., 1994). All GCC peptides were formulated to the desired concentration in Dulbecco's PBS (1×, No Ca++, no Mg++) containing […] immediately prior to dosing. Proteinase inhibitors were prepared as stock solutions in PBS and added to dosing solutions by serial dilution, as needed. The dosing solution (50 μL) was delivered into the stomachs of 2-4 day old mice (3 per dosing group) using a plastic tube attached to the needle of a 1 mL tuberculin syringe. After 3 hours, the animals were sacrificed and dissected to determine the individual weights of the intestines and the rest of the carcass, respectively.

[4] = FIG. 20, compared to ST peptide
[5] = FIG. 21, compared to linaclotide

Substance | activity in the I-125 labeled radioligand binding assay ([1]; FIG. 18, compared to STa) | I-125 binding assay [1] | CGMP accumulation assay [2] | activity in the cGMP accumulation assay ([2]; second experiment) | activity in the mouse intestinal secretion assay ([3]; FIG. 26, compared to STa) | Mouse intestinal secretion assay (suckling mouse) [3] | activity in the I-125 labeled radioligand binding assay ([1]; FIG. 19, compared to linaclotide) | activity in the I-125 labeled radioligand binding assay [1, 4] | activity in the I-125 labeled radioligand binding assay [1, 5] | activity in the cGMP accumulation assay [2] | activity in the mouse intestinal secretion assay ([3]; FIG. 24, compared to linaclotide) | activity in the mouse intestinal secretion assay ([3]; FIG. 25, compared to STa peptide)
H2N Cys Cys Glu L-Thr Cys Cys Asn Pro Ala Cys Ala Gly Cys Tyr COOH (H-CCETCCNPACAGCY-OH; not fully specified (bridges); printed as Cys Cys Glu Thr Cys Cys Asn Pro Ala Cys Ala Gly Cys Tyr; cysteine pairing not given here) [Peptide B] | activity comparable to STa | ++++ | +++ | lower than the STa peptide | lower activity | +++ |  |  |  |  |  | 
H2N Cys Cys Glu Leu Cys Cys Asn Dhp Ala Cys Ala Gly Cys Tyr COOH (CCELCCNXACAGCY; not fully specified; non-natural residue Dhp; Modified Amino Acid (8)..(8): Xaa8 = Dhp = 3,4,-dihydro-Proline, D-Pro 3,4-Dehydroproline) [Peptide A] | better activity than STa | +++++ | +++++ | higher than the STa peptide | higher activity than STa | +++++ | superior activity compared to linaclotide | superior to ST peptide | superior to linaclotide | higher than the STa peptide | better activity than linaclotide | higher activity than the STa peptide
H2N Cys Cys Glu Leu Cys Cys Asn HyPro Ala Cys Ala Gly Cys Tyr COOH (CCELCCNXACAGCY; not fully specified; non-natural hydroxy residue; Modified Amino Acid (8)..(8): Xaa8 = HyPro = Hydroxy-Proline, Hyp, Hydroxyproline) [Peptide C] |  | ++ | +++ | lower than the STa peptide |  |  |  | comparable to ST peptide | lower than linaclotide |  |  | 
H2N Cys Cys Glu Leu Cys Cys Asn Thz Ala Cys Ala Gly Cys Tyr COOH (CCELCCNXACAGCY; not fully specified; non-natural residue Thz; Modified Amino Acid (8)..(8): Xaa8 = Thz = Thiazolidine (4-thiazolidine-2-carboxylic acid), Tzd) [Peptide D] |  | +++++ | +++++ | higher than the STa peptide | higher activity than STa | +++++ |  | superior to ST peptide |  |  |  | 
